Experimental data as given in US12194038B2, “Use of flibanserin in preparation of drug for treating androgenic alopecia” (SHANGHAI DIMAIHE BIOTECHNOLOGY CO., LTD., priority 2022, dated 2025).
Several values for one entry are separate records, joined by “and”; a condition that tells them apart may be missing. Equal entries are not always repeated. Where two headings read alike, the source gives them in different places.

What was measured:
AGA model mice = experiment: Hair restoration in testosterone propionate-induced AGA model mice; format: in vivo; details: for Effective rate of animal hair restoration (effective rate of drug) / Hair restoration compared with the model group: AGA model mice, intragastric administration for 4 weeks
Experimental: Animal experiment-related reagents: testosterone propionate, Batch No. T818615. Soybean oil, Batch No. A23GS146219. 80 mg of testosterone propionate was dissolved in 40 mL of soybean oil to prepare a solution at 2 mg/mL. […] Flibanserin, Batch No. W1608745834, 0.32 mg of flibanserin was dissolved in 20 mL of physiological saline to prepare a solution at 1.6×10^−2 mg/mL
The experimental animals are male […] mice, non-inbred closed colony, weighing 18-22 g, aged 5 weeks, certificate number: No. 202207119, provided by the Institute of Comparative Medicine, Yangzhou University. In the laboratory, room temperature is 20° C.-22° C., the relative humidity is 40%-60%, ventilation is provided by a ventilation fan, and the natural light source is provided for 12 h/day. The mice were caged, with 7 mice per cage, and the cages were cleaned every three days.
Before the injection of testosterone propionate for modeling, pre-treatment was first performed, wherein the pre-treatment comprises: fixing the mice, shaving off the hairs on the back of the mice by an electric shaver, and unhairing vellus hairs using an unhairing cream. […] After successful modeling, the intragastric administration was performed for 4 weeks on the basis of the injection of the testosterone propionate solution. After the administration was completed, the effective rate (percentage of hair restoring mice to the total number of mice) of the drug was subjected to statistical analysis, and the ratio of the area of the hair growing part to the area of the unhairing part in mice was subjected to statistical analysis. The mouse hairs were taken from multiple points at different hair restoring parts on the back of the mice for length measurement and statistical analysis. The mice were sacrificed by cervical dislocation, and the back skin was taken, wherein a part of the back skin was frozen at −80° C. for extracting protein and performing a nuclear protein and cytoplasmic protein separation experiment to explore the inhibition of the drug on the nuclear localization of the androgen receptor dimer, and a part of the back skin was fixed with 4% paraformaldehyde (Cat. No.: AF030) for 48 h, and then subjected to tissue section and HE staining. […] Determination criteria: The unhairing area of the back of the mice after unhairing was measured, noted as A, the hair growing area of the back of the mice after the completion of the administration was measured, noted as B, and the mean value of the […] in each group was taken as the effective rate of animal hair restoration.

Lncap cells [1] = experiment: Inhibition of proliferation of DHT-stimulated Lncap cells by flibanserin (MTT); format: cell-based, human; details: for OD value in administration group-OD value in control group: replicate values
androgen receptor = molecular target: T1, androgen receptor (Mus musculus, UniProt P19091); experiment: Nuclear protein and cytoplasmic protein separation experiment in primary hair follicle dermal papilla cells; format: cell-based; details: 48 h
T1 construct: Mouse primary hair follicle dermal papilla cells were extracted according to enzymatic digestion and cultured for 10 days; endogenous in cells; host or cells: mouse primary hair follicle dermal papilla cells
T1 sequence (P19091 1-899): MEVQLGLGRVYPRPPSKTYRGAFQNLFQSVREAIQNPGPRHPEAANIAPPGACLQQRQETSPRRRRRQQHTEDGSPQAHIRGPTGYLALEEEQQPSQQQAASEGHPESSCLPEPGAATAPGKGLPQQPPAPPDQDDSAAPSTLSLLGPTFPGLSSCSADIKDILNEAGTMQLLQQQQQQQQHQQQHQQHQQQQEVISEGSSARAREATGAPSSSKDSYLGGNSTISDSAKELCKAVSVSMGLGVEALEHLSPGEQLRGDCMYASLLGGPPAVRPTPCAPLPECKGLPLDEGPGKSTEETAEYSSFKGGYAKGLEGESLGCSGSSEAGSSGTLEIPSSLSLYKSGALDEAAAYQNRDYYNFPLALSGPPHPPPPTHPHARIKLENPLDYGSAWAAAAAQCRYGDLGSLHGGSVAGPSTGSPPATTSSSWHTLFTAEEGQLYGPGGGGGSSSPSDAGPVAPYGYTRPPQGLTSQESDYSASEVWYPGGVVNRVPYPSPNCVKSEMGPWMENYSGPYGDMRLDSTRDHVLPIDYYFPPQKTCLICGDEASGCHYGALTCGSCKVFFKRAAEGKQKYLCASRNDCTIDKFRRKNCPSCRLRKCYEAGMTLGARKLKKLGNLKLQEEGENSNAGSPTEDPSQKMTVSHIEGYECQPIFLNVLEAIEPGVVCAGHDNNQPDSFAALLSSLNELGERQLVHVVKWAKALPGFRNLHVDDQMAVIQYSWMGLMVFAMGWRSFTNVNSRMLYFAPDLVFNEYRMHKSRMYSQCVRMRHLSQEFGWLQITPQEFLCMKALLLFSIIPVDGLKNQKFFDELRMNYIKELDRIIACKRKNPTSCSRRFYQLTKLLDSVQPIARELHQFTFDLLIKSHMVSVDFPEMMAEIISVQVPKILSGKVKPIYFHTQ

Lncap cells [2] = details: 48 h
[3] = HE staining of tissue sections, compared with the model group
[4] = DHT 10^−8 mol/L + flibanserin 5 and 1 μmol/L (both doses), compared with finasteride group and DHT group

## O=c1[nH]c2ccccc2n1CCN1CCN(c2cccc(C(F)(F)F)c2)CC1 [Flibanserin, flibanserin]
AGA model mice
  Effective rate of animal hair restoration (effective rate of drug): 85.7%
AGA model mice; listed as flibanserin
  Effective rate of animal hair restoration (effective rate of drug): 85.7%
  Hair restoration compared with the model group: restored to varying degrees
AGA model mice; [3]
  Diameter of hair follicles: increase
  Number of hair follicles per unit area: increase
  Ratio of anagen to telogen: increase
  Ratio of epidermal thickness to dermal thickness: increase
AGA model mice; compared with the model group
  Hair length: increase
Lncap cells [1]; Homo sapiens, LNCaP, flibanserin 0.001 uM, 48 h, after modeling with 10^−9 M DHT, read-out: Mean proliferation inhibition rate
  inhibition at 0.001 µM: 11.9%
Lncap cells [1]; Homo sapiens, LNCaP, flibanserin 0.1 uM, 48 h, after modeling with 10^−9 M DHT, read-out: Mean proliferation inhibition rate
  inhibition at 0.1 µM: 11%
Lncap cells [1]; Homo sapiens, LNCaP, flibanserin 1 uM, 48 h, after modeling with 10^−9 M DHT, read-out: Mean proliferation inhibition rate
  inhibition at 1 µM: 20.1%
Lncap cells [1]; Homo sapiens, LNCaP, flibanserin 10 uM, 48 h, after modeling with 10^−9 M DHT, read-out: Mean proliferation inhibition rate
  inhibition at 10 µM: 45.9%
Lncap cells [1]; Homo sapiens, LNCaP, flibanserin 50 uM, 48 h, after modeling with 10^−9 M DHT, read-out: Mean proliferation inhibition rate
  inhibition at 50 µM: 82.4%
Lncap cells [1]; Homo sapiens, LNCaP, flibanserin 100 uM, 48 h, after modeling with 10^−9 M DHT, read-out: Mean proliferation inhibition rate
  inhibition at 100 µM: 85.5%
Lncap cells [1]; flibanserin 0.001 uM, 48 h
  OD value in administration group-OD value in control group: 0.72 and 0.981 and 0.8943 and 0.8405 and 0.9681
Lncap cells [1]; flibanserin 0.1 uM, 48 h
  OD value in administration group-OD value in control group: 0.7821 and 0.9153 and 0.9204 and 0.8399 and 0.9938
Lncap cells [1]; flibanserin 1 uM, 48 h
  OD value in administration group-OD value in control group: 0.7947 and 0.8164 and 0.702 and 0.8345 and 0.8472
Lncap cells [1]; flibanserin 10 uM, 48 h
  OD value in administration group-OD value in control group: 0.3592 and 0.6076 and 0.5562 and 0.5302 and 0.6538
Lncap cells [1]; flibanserin 50 uM, 48 h
  OD value in administration group-OD value in control group: 0.1738 and 0.1424 and 0.1556 and 0.1886 and 0.2218
Lncap cells [1]; flibanserin 100 uM, 48 h
  OD value in administration group-OD value in control group: 0.1345 and 0.1157 and 0.119 and 0.1751 and 0.1812
Lncap cells [1]; flibanserin at a low concentration, MTT
  Inhibition of the proliferation of Lncap cells: can inhibit
Androgen receptor; DHT 10^−8 mol/L + finasteride 5 μmol/L or flibanserin 5 and 1 μmol/L, compared with DHT group
  Total level of the androgen receptor: no significant difference
Androgen receptor; [4]
  Level of the androgen receptor in the cytoplasm: increased
  Level of the androgen receptor in the nucleus: decreased

## C[C@]12CCC(=O)C[C@@H]1CC[C@@H]1[C@@H]2CC[C@]2(C)[C@@H](O)CC[C@@H]12 [DHT, dihydrotestosterone]
Lncap cells [2]; DHT 10^−5 uM
  Mean proliferation rate: −12.91%
Lncap cells [2]; DHT 10^−6 uM
  Mean proliferation rate: 6.30%
Lncap cells [2]; DHT 10^−7 uM
  Mean proliferation rate: 7.77%
Lncap cells [2]; DHT 10^−8 uM
  Mean proliferation rate: 9.47%
Lncap cells [2]; DHT 10^−9 uM
  Mean proliferation rate: 10.01%
Lncap cells [2]; DHT 10^−10 uM
  Mean proliferation rate: 2.79%

## CC(C)(C)NC(=O)[C@H]1CC[C@H]2[C@@H]3CC[C@H]4NC(=O)C=C[C@]4(C)[C@H]3CC[C@]12C [Finasteride, finasteride]
AGA model mice
  Effective rate of animal hair restoration (effective rate of drug): 71.4%
AGA model mice; listed as finasteride
  Effective rate of animal hair restoration (effective rate of drug): 71.4%
  Hair restoration compared with the model group: restored to varying degrees
